How the values were obtained:
Assay type in all cases: in vivo
Viola tricolor (VIOTR) [1] = assay: Post-emergence herbicidal efficacy at 80 g/ha, greenhouse pot test; settings: visual rating vs untreated control after about 3 weeks
Procedure, shortened: (§1)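 Sown in sandy loam, treated 2–3 weeks after sowing at one-leaf stage with WP or EC formulations sprayed post-emergence in water (600 l/ha) plus 0.5% additive. Kept in greenhouse ~3 weeks, then activity scored visually vs untreated controls (100% = plants dead, 0% = like control).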

[2] = system: Alopecurus myosuroides (ALOMY); assay: as above; settings: visual rating vs untreated control after about 3 weeks
Procedure, shortened: as §1

Veronica persica (VERPE) [3] = assay: as above; settings: visual rating vs untreated control after about 3 weeks
Procedure, shortened: as §1

[4] = system: Polygonum convolvulus (POLCO); assay: as above; settings: visual rating vs untreated control after about 3 weeks
Procedure, shortened: as §1

[5] = system: Amaranthus retroflexus (AMARE); assay: as above; settings: visual rating vs untreated control after about 3 weeks
Procedure, shortened: as §1

[6] = system: Digitaria sanguinalis (DIGSA); assay: Pre-emergence herbicide efficacy at 80 g/ha, greenhouse pot test; settings: visual scoring vs untreated control after about 3 weeks
Procedure, shortened: (§2)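 Seeds were sown in pots and covered with soil, then the compound (WP or EC formulation) was sprayed onto the soil surface as an aqueous suspension or emulsion with 0.5% additive. Pots were kept in a greenhouse, and after about 3 weeks activity was scored visually versus untreated controls (100% = plants dead, 0% = like control).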

Setaria viridis (SETVI) [7] = assay: as above; settings: visual scoring vs untreated control after about 3 weeks
Procedure, shortened: as §2

Viola tricolor (VIOTR) [8] = assay: as above; settings: visual scoring vs untreated control after about 3 weeks
Procedure, shortened: as §2

[9] = system: Abutilon theophrasti (ABUTH); assay: as above; settings: visual scoring vs untreated control after about 3 weeks
Procedure, shortened: as §2

Avena fatua (AVEFA) = assay: as above; settings: visual scoring vs untreated control after about 3 weeks
Procedure, shortened: as §2

[10] = system: Matricaria inodora (MATIN); assay: as above; settings: visual scoring vs untreated control after about 3 weeks
Procedure, shortened: as §2

Ipomoea purpurea (PHBPU) = assay: as above; settings: visual scoring vs untreated control after about 3 weeks
Procedure, shortened: as §2

[11] = system: Alopecurus myosuroides (ALOMY); assay: as above; settings: visual scoring vs untreated control after about 3 weeks
Procedure, shortened: as §2

Veronica persica (VERPE) [12] = assay: as above; settings: visual scoring vs untreated control after about 3 weeks
Procedure, shortened: as §2

[13] = system: Polygonum convolvulus (POLCO); assay: as above; settings: visual scoring vs untreated control after about 3 weeks
Procedure, shortened: as §2

[14] = system: Amaranthus retroflexus (AMARE); assay: as above; settings: visual scoring vs untreated control after about 3 weeks
Procedure, shortened: as §2

Setaria viridis (SETVI) [15] = assay: Pre-emergence herbicide efficacy at 320 g/ha, greenhouse pot test; settings: visual scoring vs untreated control after about 3 weeks
Procedure, shortened: (§3)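 Weed seeds were sown in sandy loam in pots, one mono- or dicot species per pot, and covered with soil. WP or EC formulations were sprayed onto the soil surface as aqueous suspension or emulsion with 0.5% additive at 600 L/ha water. Visual scoring after about 3 weeks, % activity versus untreated controls.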

[16] = system: Abutilon theophrasti (ABUTH); assay: as above; settings: visual scoring vs untreated control after about 3 weeks
Procedure, shortened: as §3

[17] = system: Matricaria inodora (MATIN); assay: as above; settings: visual scoring vs untreated control after about 3 weeks
Procedure, shortened: as §3

Poa annua (POAAN) [18] = assay: as above; settings: visual scoring vs untreated control after about 3 weeks
Procedure, shortened: as §3

Stellaria media (STEME) [19] = assay: as above; settings: visual scoring vs untreated control after about 3 weeks
Procedure, shortened: as §3

Bassia scoparia (KCHSC) [20] = assay: as above; settings: dosage 1280 g/ha in Table C6, visual scoring after about 3 weeks
Procedure, shortened: as §3

[21] = system: Alopecurus myosuroides (ALOMY); assay: as above; settings: visual scoring vs untreated control after about 3 weeks
Procedure, shortened: as §3

Veronica persica (VERPE) [22] = assay: as above; settings: visual scoring vs untreated control after about 3 weeks
Procedure, shortened: as §3

[23] = system: Echinochloa crus-galli (ECHCG); assay: as above; settings: visual scoring vs untreated control after about 3 weeks
Procedure, shortened: as §3

[24] = system: Amaranthus retroflexus (AMARE); assay: as above; settings: visual scoring vs untreated control after about 3 weeks
Procedure, shortened: as §3

Setaria viridis (SETVI) [25] = assay: Post-emergence herbicidal efficacy at 320 g/ha, greenhouse pot test; settings: visual rating vs untreated control after about 3 weeks
Procedure, shortened: (§4)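 Post-emergence foliar spray on one-leaf-stage weeds, 2 to 3 weeks from sowing, using WP or EC preparations with 0.5% additive. Damage was judged by eye after roughly 3 weeks compared with untreated controls.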

[26] = system: Abutilon theophrasti (ABUTH); assay: as above; settings: visual rating vs untreated control after about 3 weeks
Procedure, shortened: as §4

Poa annua (POAAN) [27] = assay: as above; settings: visual rating vs untreated control after about 3 weeks
Procedure, shortened: as §4

Stellaria media (STEME) [28] = assay: as above; settings: visual rating vs untreated control after about 3 weeks
Procedure, shortened: as §4

Bassia scoparia (KCHSC) [29] = assay: as above; settings: visual rating vs untreated control after about 3 weeks
Procedure, shortened: as §4

Veronica persica (VERPE) [30] = assay: as above; settings: 320 g/ha, visual rating vs untreated control after about 3 weeks
Procedure, shortened: as §4

[31] = system: Amaranthus retroflexus (AMARE); assay: as above; settings: visual rating vs untreated control after about 3 weeks
Procedure, shortened: as §4

Lolium rigidum (LOLRI) = assay: as above; settings: visual rating vs untreated control after about 3 weeks
Procedure, shortened: as §4

SMILES: Cc1cc(C)c(-c2cc(C(F)F)no2)c(Oc2ncc(F)cn2)n1 [Example I-4]
- Post-emergence efficacy against Viola tricolor (VIOTR) (Viola tricolor (VIOTR) [1]): 80%
- Post-emergence efficacy against Alopecurus myosuroides (ALOMY) [2]: 90%
- Post-emergence efficacy against Veronica persica (VERPE) (Veronica persica (VERPE) [3]): 90%
- Post-emergence efficacy against Polygonum convolvulus (POLCO) [4]: 90%
- Post-emergence efficacy against Amaranthus retroflexus (AMARE) [5]: 100%
- Pre-emergence efficacy against Digitaria sanguinalis (DIGSA) [6]: 100%
- Pre-emergence efficacy against Setaria viridis (SETVI) (Setaria viridis (SETVI) [7]): 100%
- Pre-emergence efficacy against Viola tricolor (VIOTR) (Viola tricolor (VIOTR) [8]): 100%
- Pre-emergence efficacy against Abutilon theophrasti (ABUTH) [9]: 100%
- Pre-emergence efficacy against Avena fatua (AVEFA) (Avena fatua (AVEFA)): 80%
- Pre-emergence efficacy against Matricaria inodora (MATIN) [10]: 90%
- Pre-emergence efficacy against Ipomoea purpurea (PHBPU) (Ipomoea purpurea (PHBPU)): 80%
- Pre-emergence efficacy against Alopecurus myosuroides (ALOMY) [11]: 90%
- Pre-emergence efficacy against Veronica persica (VERPE) (Veronica persica (VERPE) [12]): 100%
- Pre-emergence efficacy against Polygonum convolvulus (POLCO) [13]: 90%
- Pre-emergence efficacy against Amaranthus retroflexus (AMARE) [14]: 100%

SMILES: Cc1cc(C)c(-c2cc(C(F)F)no2)c(Oc2ncc(Br)cn2)n1 [Example I-41]
- Pre-emergence efficacy against Setaria viridis (SETVI) (Setaria viridis (SETVI) [15]): 100%
- Pre-emergence efficacy against Abutilon theophrasti (ABUTH) [16]: 100%
- Pre-emergence efficacy against Matricaria inodora (MATIN) [17]: 100%
- Pre-emergence efficacy against Poa annua (POAAN) (Poa annua (POAAN) [18]): 100%
- Pre-emergence efficacy against Stellaria media (STEME) (Stellaria media (STEME) [19]): 100%
- Pre-emergence efficacy against Bassia scoparia (KCHSC) (Bassia scoparia (KCHSC) [20]): 100%
- Pre-emergence efficacy against Alopecurus myosuroides (ALOMY) [21]: 90%
- Pre-emergence efficacy against Veronica persica (VERPE) (Veronica persica (VERPE) [22]): 100%
- Pre-emergence efficacy against Echinochloa crus-galli (ECHCG) [23]: 90%
- Pre-emergence efficacy against Amaranthus retroflexus (AMARE) [24]: 100%
- Post-emergence efficacy against Veronica persica (VERPE) (Veronica persica (VERPE) [3]): 90%
- Post-emergence efficacy against Polygonum convolvulus (POLCO) [4]: 80%
- Post-emergence efficacy against Amaranthus retroflexus (AMARE) [5]: 90%
- Pre-emergence efficacy against Setaria viridis (SETVI) (Setaria viridis (SETVI) [7]): 80%
- Pre-emergence efficacy against Viola tricolor (VIOTR) (Viola tricolor (VIOTR) [8]): 80%
- Pre-emergence efficacy against Abutilon theophrasti (ABUTH) [9]: 80%
- Pre-emergence efficacy against Matricaria inodora (MATIN) [10]: 80%
- Pre-emergence efficacy against Alopecurus myosuroides (ALOMY) [11]: 80%
- Pre-emergence efficacy against Veronica persica (VERPE) (Veronica persica (VERPE) [12]): 80%
- Pre-emergence efficacy against Polygonum convolvulus (POLCO) [13]: 90%
- Pre-emergence efficacy against Amaranthus retroflexus (AMARE) [14]: 100%
- Post-emergence efficacy against Setaria viridis (SETVI) (Setaria viridis (SETVI) [25]): 90%
- Post-emergence efficacy against Abutilon theophrasti (ABUTH) [26]: 90%
- Post-emergence efficacy against Poa annua (POAAN) (Poa annua (POAAN) [27]): 100%
- Post-emergence action against Stellaria media (STEME) (Stellaria media (STEME) [28]): 100%
- Post-emergence efficacy against Bassia scoparia (KCHSC) (Bassia scoparia (KCHSC) [29]): 100%
- Post-emergence efficacy against Veronica persica (VERPE) (Veronica persica (VERPE) [30]): 100%
- Post-emergence efficacy against Amaranthus retroflexus (AMARE) [31]: 100%
- Post-emergence efficacy against Lolium rigidum (LOLRI) (Lolium rigidum (LOLRI)): 90%

— patent US20230303549A1, “SUBSTITUTED HETEROARYLOXYPYRIDINES, THE SALTS THEREOF AND THEIR USE AS HERBICIDAL AGENTS” (Bayer Aktiengesellschaft, priority 2020, published 2023)
